For test [1], the target named is Glycogen synthase kinase-3 alpha (Homo sapiens, UniProt P49840). In words: TR-FRET Assay. An outline of the steps: (§1)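 Kinase activity, measured after a 30-minute compound preincubation, was stopped with EDTA and quantified by TR-FRET using a Tb-labelled pSer641 antibody paired with streptavidin-d2.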
Background: TR-FRET usually uses a lanthanide donor and a delayed reading to cut background.

For test [2], the target named is Glycogen synthase kinase-3 beta (Homo sapiens, UniProt P49841). In words: TR-FRET Assay. An outline of the steps:
as §1

Values joined by “and” are separate entries in the source; they are usually repeats but may differ in a detail not shown here. Equal entries are not always repeated.

For orientation: IC50 means the midpoint of a concentration-inhibition curve. High values mean lower potency, low ones higher potency.

Chain of Glycogen synthase kinase-3 beta (P49841 whole entry): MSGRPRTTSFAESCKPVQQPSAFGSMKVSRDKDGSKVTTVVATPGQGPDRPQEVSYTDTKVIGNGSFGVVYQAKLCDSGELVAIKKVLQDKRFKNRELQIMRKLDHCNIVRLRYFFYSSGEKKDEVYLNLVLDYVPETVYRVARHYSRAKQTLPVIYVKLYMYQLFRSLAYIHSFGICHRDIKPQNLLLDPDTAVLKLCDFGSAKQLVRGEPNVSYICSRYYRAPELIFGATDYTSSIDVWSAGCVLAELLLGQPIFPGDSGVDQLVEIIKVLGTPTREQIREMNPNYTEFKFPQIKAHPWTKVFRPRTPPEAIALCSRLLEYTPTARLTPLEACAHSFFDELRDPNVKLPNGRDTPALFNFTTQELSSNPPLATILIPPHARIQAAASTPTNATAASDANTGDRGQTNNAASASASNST
Chain of Glycogen synthase kinase-3 alpha (P49840 whole entry): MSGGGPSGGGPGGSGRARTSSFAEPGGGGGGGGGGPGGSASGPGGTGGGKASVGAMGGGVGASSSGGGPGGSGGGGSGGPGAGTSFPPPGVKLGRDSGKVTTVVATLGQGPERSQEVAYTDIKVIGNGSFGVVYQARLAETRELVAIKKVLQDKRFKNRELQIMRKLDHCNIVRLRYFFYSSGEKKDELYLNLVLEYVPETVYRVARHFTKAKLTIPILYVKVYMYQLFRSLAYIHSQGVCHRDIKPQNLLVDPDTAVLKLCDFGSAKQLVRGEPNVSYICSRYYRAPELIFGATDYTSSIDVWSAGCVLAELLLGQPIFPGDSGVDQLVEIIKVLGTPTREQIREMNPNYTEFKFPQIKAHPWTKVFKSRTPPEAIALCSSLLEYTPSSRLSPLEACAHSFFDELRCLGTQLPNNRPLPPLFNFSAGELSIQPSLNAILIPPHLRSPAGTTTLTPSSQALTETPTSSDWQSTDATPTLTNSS

In the case of `CC1N=NC2=C1C1(CC3(CCC3)C1)C1=C(CC(C)(C)CC1=O)N2` (stereo unspecified) [US20250313563, Compound 877295], the IC50 in test [1] and in test [2] was above 5000 nM throughout.
Turning to `CCC1(c2cccc(NC(C)=O)c2)C2=CN=NC2NC2=C1C(=O)CC(C)(C)C2` (stereo unspecified) [US20250313563, Compound 877310], the IC50 in test [1] is below 100 nM; in test [2], 100 to 1000 nM.
Regarding `CCC1(c2cccc(N3CCCCC3)c2)C2=C(CC(C)(C)CC2=O)NC2N=NC(C)=C21` (stereo unspecified) [US20250313563, Compound 877311], the IC50 in test [1] and in test [2] was below 100 nM each time.
On to `CC1(C)CC(=O)C2=C(C1)NC1=C(CN=N1)[C@]21CCOC1` [US20250313563, Compound 877313], for which the IC50 in test [1] and in test [2] was 100 to 1000 nM throughout.
For the molecule `CC1(C)CC(=O)C2=C(C1)NC1=C(CN=N1)[C@@]21CCOC1` [US20250313563, Compound 877314], the IC50 in test [1] lay in the range of 100 to 1000 nM; in test [2], 1000 to 5000 nM.
Turning to `CC1(C)CC(=O)C2=C(C1)NC1=C(CN=N1)C21CCN(c2ccncc2)CC1` [US20250313563, Compound 880765], the IC50 in test [1] and in test [2] was above 5000 nM throughout.
With `CC1(C)CC(=O)C2=C(C1)NC1=C(CN=N1)C21CCN(S(C)(=O)=O)CC1` [US20250313563, Compound 880776], the IC50 in test [1] and in test [2] was below 100 nM throughout.
For the molecule `CC1(C)CC(=O)C2=C(NC3N=NC=C3C23CCOCC3)[C@H]1F` (stereo partly specified) [US20250313563, Compound 883833], the IC50 in test [1] lay in the range of 100 to 1000 nM; in test [2], 1000 to 5000 nM.
For `CC1(C)CC(=O)C2=C(NC3=C(CN=N3)C23CCOCC3)[C@@H]1F` [US20250313563, Compound 883834], the half-inhibitory concentration (IC50) in test [1] lay within 100 to 1000 nM; in test [2] it was 1000 to 5000 nM.
For `CC1(C)CC2=C(C(=O)[C@@H]1F)C1(CCOCC1)C1=C(N=NC1)N2` [US20250313563, Compound 883835] the same measures were 100 to 1000 nM and 100 to 1000 nM.
For the molecule `CC1(C)CC2=C(C(=O)[C@H]1F)C1(CCOCC1)C1=C(N=NC1)N2` [US20250313563, Compound 883836], the results for the IC50 in test [1] and in test [2] were 100 to 1000 nM and 1000 to 5000 nM, respectively.
For `C[C@H]1CC[C@@]2(C1)C1=C(N=NC1)NC1=C2C(=O)CC(C)(C)C1` [US20250313563, Compound 883840] the same measures were 100 to 1000 nM and 100 to 1000 nM.
As for `C[C@@H]1CC[C@]2(C1)C1=C(N=NC1)NC1=C2C(=O)CC(C)(C)C1` [US20250313563, Compound 883841], the IC50 in test [1] and in test [2] was 100 to 1000 nM throughout.
`CC1(C)CC(=O)C2=C(C1)NC1=C(CN=N1)[C@@]21CCCC(C)(C)C1` [US20250313563, Compound 883846]: the IC50 is 100 to 1000 nM in test [1] and 1000 to 5000 nM in test [2].
On to `CCC1(c2cccc(-c3ccnc(OC)c3)c2)C2=CN=NC2NC2=C1C(=O)CC(C)(C)C2` (stereo unspecified) [US20250313563, Compound 883850], for which the IC50 is below 100 nM in test [1] and 100 to 1000 nM in test [2].
For `CCC1(c2cccc(-c3c(C)nn(C)c3C)c2)C2=CN=NC2NC2=C1C(=O)CC(C)(C)C2` (stereo unspecified) [US20250313563, Compound 883851], the IC50 in test [1] and in test [2] was below 100 nM each time.
With `CCC1(c2cccc(-c3ccnn3C)c2)C2=CN=NC2NC2=C1C(=O)CC(C)(C)C2` (stereo unspecified) [US20250313563, Compound 883852], the IC50 in test [1] and in test [2] was below 100 nM throughout.
Take `CC1(C)CC(=O)C2=C(C1)NC1=C(CN=N1)C21CC(C)(C)C1` [US20250313563, Compound 883864]: the half-maximal inhibitory concentration (IC50) is below 100 nM in test [1] and 100 to 1000 nM in test [2].
For `CC1=C2C(N=N1)NC1=C(C(=O)CC(C)(C)C1)C21CCCCC1` (stereo unspecified) [US20250313563, Compound 883865] the same measures were below 100 nM and 100 to 1000 nM.
`CCC1(c2ccc(C)cc2)C2=C(CC(C)(C)CC2=O)NC2N=NC(C(F)(F)F)=C21` (stereo unspecified) [US20250313563, Compound 883866]: the IC50 in test [1] and in test [2] was below 100 nM each time.
For the molecule `CCC1(c2ccccc2)C2=C(N=NC2)NC2=C1C(=O)N(C)CC2` (stereo unspecified) [US20250313563, Compound 883867], the IC50 in test [1] and in test [2] was above 5000 nM each time.
Take `CC[C@]1(c2cccc(C)c2)C2=C(CC(C)(C)CC2=O)NC2N=NC(C(F)(F)F)=C21` (stereo partly specified) [US20250313563, Compound 883872]: the figures for the IC50 in test [1] and in test [2] were 1000 to 5000 nM and above 5000 nM, respectively.
Consider `CC[C@]1(c2cccc(N3CCCC3)c2)C2=C(CC(C)(C)CC2=O)NC2N=NC(C)=C21` (stereo partly specified) [US20250313563, Compound 883875], for which the IC50 is 100 to 1000 nM in test [1] and 1000 to 5000 nM in test [2].
For `CC1(C)CC(=O)C2=C(C1)NC1=C(CN=N1)C21CCN(CC(F)F)CC1` [US20250313563, Compound 883962] the same measures were 100 to 1000 nM and 100 to 1000 nM.
For `CC1(C)CC(=O)C2=C(C1)NC1=C(CN=N1)C21CCC(F)(F)CC1` [US20250313563, Compound 883972] the same measures were below 100 nM and 100 to 1000 nM.
Taken in the same sequence, the figures for `CC1(C)CC(=O)C2=C(C1)NC1=C(CN=N1)C21CCSC1` (stereo unspecified) [US20250313563, Compound 883973] were below 100 nM and 100 to 1000 nM.
`CC1(C)CC(=O)C2=C(C1)NC1=C(CN=N1)C21CCC2(CC1)COC2` [US20250313563, Compound 883977]: the IC50 in test [1] was below 100 nM; in test [2], 100 to 1000 nM.
For `CC1(C)CC(=O)C2=C(C1)NC1=C(CN=N1)C21CCCCCC1` [US20250313563, Compound 883978] the same measures were 100 to 1000 nM and 100 to 1000 nM.
Take `CC[C@]1(c2cccc(C(F)(F)F)c2)C2=CN=NC2NC2=C1C(=O)N(C)C[C@@H]2C` (stereo partly specified) [US20250313563, Compound 883979]: the IC50 in test [1] and in test [2] was below 100 nM in each case.
With `CC[C@]1(c2cccc(C(F)(F)F)c2)C2=CN=NC2NC2=C1C(=O)N(C)C[C@H]2C` (stereo partly specified) [US20250313563, Compound 883980], the IC50 was < 100 nM and 100 to 1000 nM in test [1]; < 100 nM and 1000 to 5000 nM in test [2].
For the molecule `CC[C@@]1(c2cccc(C(F)(F)F)c2)C2=CN=NC2NC2=C1C(=O)N(C)C[C@@H]2C` (stereo partly specified) [US20250313563, Compound 883981], the IC50 in test [1] and in test [2] was above 5000 nM throughout.
In the case of `CC[C@@]1(c2cccc(C(F)(F)F)c2)C2=CN=NC2NC2=C1C(=O)N(C)C[C@H]2C` (stereo partly specified) [US20250313563, Compound 883982], the half-maximal inhibitory concentration (IC50) in test [1] and in test [2] was above 5000 nM throughout.
Consider `CCC1(c2cccc(-c3ccnc(OC)c3)c2)C2=C(CC(C)(C)CC2=O)NC2N=NC(C)=C21` (stereo unspecified) [US20250313563, Compound 883985], for which the IC50 in test [1] was below 100 nM; in test [2], 100 to 1000 nM.
For the molecule `CCC1(c2cccc(-c3ccncc3F)c2)C2=CN=NC2NC2=C1C(=O)CC(C)(C)C2` (stereo unspecified) [US20250313563, Compound 883986], the IC50 in test [1] and in test [2] was below 100 nM throughout.
Take `CCC1(c2cccc(-c3ccnc(C)c3)c2)C2=C(CC(C)(C)CC2=O)NC2N=NC(C)=C21` (stereo unspecified) [US20250313563, Compound 883987]: the IC50 was below 100 nM in test [1] and 100 to 1000 nM in test [2].
Taken in the same sequence, the figures for `CCC1(c2cccc(-c3cc(C)ncc3C)c2)C2=C(CC(C)(C)CC2=O)NC2N=NC(C)=C21` (stereo unspecified) [US20250313563, Compound 883988] were below 100 nM and below 100 nM.
For `CCC1(c2cccc(-c3ccnc(C(F)(F)F)c3)c2)C2=C(CC(C)(C)CC2=O)NC2N=NC(C)=C21` (stereo unspecified) [US20250313563, Compound 883989] the same measures were below 100 nM and 100 to 1000 nM.
Taken in the same sequence, the figures for `CCC1(c2cccc(-c3ccnc(N(C)C)c3)c2)C2=C(CC(C)(C)CC2=O)NC2N=NC(C)=C21` (stereo unspecified) [US20250313563, Compound 883990] were below 100 nM and 100 to 1000 nM.
Consider `CCC1(c2cccc(-c3ccncc3C)c2)C2=C(CC(C)(C)CC2=O)NC2N=NC(C)=C21` (stereo unspecified) [US20250313563, Compound 883991], for which the IC50 in test [1] and in test [2] was below 100 nM in each case.
As for `CCC1(c2cccc(-c3ccnn3C)c2)C2=C(CC(C)(C)CC2=O)NC2N=NC(C)=C21` (stereo unspecified) [US20250313563, Compound 883992], the IC50 in test [1] and in test [2] was below 100 nM throughout.
As for `CCC1(c2cccc(-c3cnn(C)c3C)c2)C2=C(CC(C)(C)CC2=O)NC2N=NC(C)=C21` (stereo unspecified) [US20250313563, Compound 883993], the IC50 in test [1] and in test [2] was below 100 nM each time.
Consider `CCC1(c2cccc(C3=CN=NC3)c2)C2=C(CC(C)(C)CC2=O)NC2N=NC(C)=C21` (stereo unspecified) [US20250313563, Compound 883994], for which the IC50 in test [1] and in test [2] was below 100 nM in each case.
On to `CCC1(c2cccc(-c3c(C)nn(C)c3C)c2)C2=C(CC(C)(C)CC2=O)NC2N=NC(C)=C21` (stereo unspecified) [US20250313563, Compound 883995], for which the IC50 in test [1] and in test [2] was below 100 nM in each case.
For `CCC1(c2cccc(-c3cnn(CCOC)c3)c2)C2=C(CC(C)(C)CC2=O)NC2N=NC(C)=C21` (stereo unspecified) [US20250313563, Compound 883996], the IC50 is below 100 nM in test [1] and 100 to 1000 nM in test [2].
With `CCC1(c2cccc(-c3cnn(C4CC4)c3)c2)C2=C(CC(C)(C)CC2=O)NC2N=NC(C)=C21` (stereo unspecified) [US20250313563, Compound 883997], the IC50 in test [1] was below 100 nM; in test [2] it was 100 to 1000 nM.
Taken in the same sequence, the figures for `CCC1(c2cccc(-c3cn(C)nc3C(C)C)c2)C2=C(CC(C)(C)CC2=O)NC2N=NC(C)=C21` (stereo unspecified) [US20250313563, Compound 883998] were below 100 nM and 100 to 1000 nM.
Regarding `CCC1(c2cccc(-c3ccn(C)n3)c2)C2=C(CC(C)(C)CC2=O)NC2N=NC(C)=C21` (stereo unspecified) [US20250313563, Compound 883999], the IC50 in test [1] and in test [2] was below 100 nM in each case.
As for `CCC1(c2cccc(-c3cnn(C)c3)c2)C2=C(CC(C)(C)CC2=O)NC2N=NC(C)=C21` (stereo unspecified) [US20250313563, Compound 884000], the values for the IC50 in test [1] and in test [2] were below 100 nM and 100 to 1000 nM, respectively.

These data come from BindingDB's records for patent US20250313563 (The Broad Institute, 2025).
